This is an account of results in patent US20130136827A1, “Method and Composition for Increasing The Proportion of Dietary Ingredients That Are Resistant To Degradation by Ruminal Microorganisms” (priority 2011, published 2013).

Data set [1] concerns microorganisms within the rumen ecosystem. Particulars: Montgomery et al., J Anim Sci. 86(3):640-50; cited from earlier work.
A further data set relates to ruminal microbes. The data set can be described thus: In situ ruminal incubation of samples in Dacron bags for 24 hours. From the text: The in situ procedure utilizes small in situ bags made of a nitrogen-free synthetic polyester fabric (Dacron®; Ankom Technology, Mecedon, N.Y.) that has a 50 μm pore size. The pores are sufficiently small such that when feed materials are placed into the bag the contents are retained. The pore size also is large enough to allow for entry of microorganisms into the bag when placed into the rumen, thus exposing the contents to the degradative actions of ruminal microbes. Disappearance of feed particles from the bag is presumed to be due to microbial fermentative activity whilst the bag and its contents are suspended within the rumen environment. In situ assays provide useful information regarding the susceptibility of feeds to microbial digestion within the rumen.
The test procedure consisted of adding 12 g of sample (as is) to Dacron bags, which then were heat sealed and subsequently placed into the rumen and allowed to incubate for 24 hours. Bags then were removed from the rumen, dried and weighed to determine disappearance of dry matter. Concentrations of protein, total fatty acids, and fatty acid profile were determined for the residue from each sample. Samples were prepared in duplicate within each animal, along with blank bags for correction, and six animals were used. Three cattle were fed a high-concentrate diet and 3 were fed a high-forage, i.e., low concentrate diet.
These values were used to calculate the extent of dry matter and nutrient disappearance during the in situ digestion procedure.

With `CC/C=C\C/C=C\C/C=C\CCCCCCCC(=O)O` [ALA, Alpha-linolenic acid], the “dietary ALA available for absorption in the postruminal digestive tract” value in data set [1] is given as “less than 5%”.

Take `Cl.NCCCC[C@H](N)C(=O)O` [Lysine, lysine hydrochloride]: the “ruminally degraded / disappearance of dry matter, over Low and High concentrate groups” value with ruminal microbes (24-hour period of ruminal incubation, text summary of Table VII) is reported as at least 99.83%. In addition, the “In situ dry matter disappearance (%), Mean” value in the data set with ruminal microbes (24 hours of ruminal incubation, average of Low and High concentrate groups) came out at 99.86%. The “In situ dry matter disappearance (%), High Concentrate” value in the data set on ruminal microbes (24 hours of ruminal incubation, cattle on high-concentrate diet) was 99.83%. The “In situ dry matter disappearance (%), Low Concentrate” value with ruminal microbes (24 hours of ruminal incubation, cattle on high-forage/low concentrate diet) amounted to 99.88%.
